Reference: PubChem BioAssay (NCI)
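Grown in 96-well plates, cells were treated for 48 hours with each compound at five concentrations. Insufficient inhibition: endpoint recorded as highest concentration tested. TGI: total growth inhibition.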

Experiments:
Assay in all cases: NCI tumour cell line growth inhibition, 48 h
SNB-19 CNS = system: SNB-19 CNS
CAKI-1 renal = system: CAKI-1 renal
KM12 colon = system: KM12 colon
MDA-MB-435 = system: MDA-MB-435
TK-10 renal = system: TK-10 renal
RPMI-8226 leukemia = system: RPMI-8226 leukemia
SK-MEL-28 melanoma = system: SK-MEL-28 melanoma
SR leukemia = system: SR leukemia
LOX IMVI melanoma = system: LOX IMVI melanoma
NCI-H522 lung = system: NCI-H522 lung
OVCAR-4 ovarian = system: OVCAR-4 ovarian
A549 NSCLC = system: A549 NSCLC
CCRF-CEM leukemia = system: CCRF-CEM leukemia
PC-3 prostate = system: PC-3 prostate
MDA-N = system: MDA-N
UACC-257 melanoma = system: UACC-257 melanoma
U251 CNS = system: U251 CNS
ACHN renal = system: ACHN renal
K-562 leukemia = system: K-562 leukemia
DU-145 prostate = system: DU-145 prostate
HCT-116 colon = system: HCT-116 colon
HOP-62 NSCLC = system: HOP-62 NSCLC
HS 578T breast = system: HS 578T breast
T-47D breast = system: T-47D breast
A498 renal = system: A498 renal
MCF7 breast = system: MCF7 breast
HL-60(TB) leukemia = system: HL-60(TB) leukemia
NCI-H460 lung = system: NCI-H460 lung
MDA-MB-231 breast = system: MDA-MB-231 breast
UO-31 renal = system: UO-31 renal
SN12C renal = system: SN12C renal
NCI-H226 lung = system: NCI-H226 lung
HCC-2998 colon = system: HCC-2998 colon
SK-MEL-5 melanoma = system: SK-MEL-5 melanoma
SW-620 colon = system: SW-620 colon
COLO 205 colon = system: COLO 205 colon
BT-549 breast = system: BT-549 breast
SNB-75 CNS = system: SNB-75 CNS
EKVX NSCLC = system: EKVX NSCLC
SK-MEL-2 melanoma = system: SK-MEL-2 melanoma
HT29 colon = system: HT29 colon
MOLT-4 leukemia = system: MOLT-4 leukemia
RXF 393 renal = system: RXF 393 renal
UACC-62 melanoma = system: UACC-62 melanoma
OVCAR-5 ovarian = system: OVCAR-5 ovarian
M14 melanoma = system: M14 melanoma
SF-295 CNS = system: SF-295 CNS
MALME-3M melanoma = system: MALME-3M melanoma
SF-539 CNS = system: SF-539 CNS
HCT-15 colon = system: HCT-15 colon
SF-268 CNS = system: SF-268 CNS
OVCAR-8 ovarian = system: OVCAR-8 ovarian
OVCAR-3 ovarian = system: OVCAR-3 ovarian
786-0 renal = system: 786-0 renal
NCI-H23 lung = system: NCI-H23 lung
SK-OV-3 ovarian = system: SK-OV-3 ovarian

Measured: TGI

N#CC[C@@H](O)COc1ccccc1
> 100 µM: SNB-19 CNS | CAKI-1 renal | KM12 colon | MDA-MB-435 | TK-10 renal | RPMI-8226 leukemia | SK-MEL-28 melanoma | SR leukemia | LOX IMVI melanoma | NCI-H522 lung | OVCAR-4 ovarian | A549 NSCLC | CCRF-CEM leukemia | PC-3 prostate | MDA-N | UACC-257 melanoma | U251 CNS | ACHN renal | K-562 leukemia | DU-145 prostate | HCT-116 colon | HOP-62 NSCLC | HS 578T breast | T-47D breast | A498 renal | MCF7 breast | HL-60(TB) leukemia | NCI-H460 lung | MDA-MB-231 breast | UO-31 renal | SN12C renal | NCI-H226 lung | HCC-2998 colon | SK-MEL-5 melanoma | SW-620 colon | COLO 205 colon | BT-549 breast | SNB-75 CNS | EKVX NSCLC | SK-MEL-2 melanoma | HT29 colon | MOLT-4 leukemia | RXF 393 renal | UACC-62 melanoma | OVCAR-5 ovarian | M14 melanoma | SF-295 CNS | MALME-3M melanoma | SF-539 CNS | HCT-15 colon | SF-268 CNS | OVCAR-8 ovarian | OVCAR-3 ovarian | 786-0 renal | NCI-H23 lung | SK-OV-3 ovarian
